The nature of data set [1]: in vivo. The conditions noted are these: male, CD1, mouse; for Cmax / bioavailability: po, 30 mg/kg.
Data set [2] in a line: in vivo. As to conditions: male, SD, rat; for bioavailability / Cmax: po, 30 mg/kg; for Cmax: Cmax (ng/ml).
A short description of data set [3]: physchem. The conditions noted are these: 25 °C, kinetic from dmso stock.

Each structure is given as a SMILES string. Converted amounts (≈) assume the structure as drawn. Where a name gives a salt, the structure may show the parent alone.

One may read the half-life as the time needed for the level to fall by half in the phase considered. Low values mean fast loss, high ones slow loss. Usually Cmax stands for the highest concentration seen after dosing. By bioavailability is commonly meant dose-corrected exposure relative to a reference, in per cent. Consider `Cc1n[nH]c2nc(-c3ccc(NS(=O)(=O)c4cc(Cl)ccc4F)cc3)nc(NCCN(C)CCOP(=O)(O)O)c12` [Compound 88, 2-{[2-({6-[4-(5-chloro-2-fluorobenzenesulfonamido)phenyl]-3-methyl-1H-pyrazolo[3,4-d]pyrimidin-4-yl}amino)ethyl](methyl)amino}ethoxyphosphonic acid], for which, in data set [1], the half-life is 4.3 h, the highest level (Cmax) was 14.5 ng/mL and the bioavailability amounted to 1.6%.
In data set [2], `Cc1n[nH]c2nc(-c3ccc(NS(=O)(=O)c4cc(F)ccc4F)c(Cl)c3)nc(O[C@@H]3CCNC[C@@H]3F)c12` [Compound 156, N-[2-chloro-4-(4-{[(3S,4R)-3-fluoropiperidin-4-yl]oxy}-3-methyl-1H-pyrazolo[3,4-d]pyrimidin-6-yl)phenyl]-2,5-difluorobenzenesulfonamide hydrochloride] gave a half-life of 5.2 h, a bioavailability of 12% and a peak concentration (Cmax) of 548 ng/mL.
Turning to `CCC(=O)OCCN(C)CCNc1nc(-c2ccc(NS(=O)(=O)c3cc(Cl)ccc3F)cc2)nc2[nH]nc(C)c12` [Compound 90, 2-{[2-({6-[4-(5-chloro-2-fluorobenzenesulfonamido)phenyl]-3-methyl-1H-pyrazolo[3,4-d]pyrimidin-4-yl}amino)ethyl](methyl)amino}ethyl propanoate; bis(trifluoroacetic acid)], in data set [1], the half-life was 2.4 h, the Cmax came out at 523 ng/mL and the bioavailability turned out to be 5.5%.
In data set [2], `COc1cc(-c2nc(NCCN(C)C)c3c(C)n[nH]c3n2)ccc1NS(=O)(=O)c1cc(F)ccc1F` [Compound 96, N-[4-(4-{[2-(dimethylamino)ethyl]amino}-3-methyl-1H-pyrazolo[3,4-d]pyrimidin-6-yl)-2-methoxyphenyl]-2,5-difluorobenzenesulfonamide] showed a half-life of 3.3 h, a bioavailability of 24% and a peak concentration (Cmax) of 267 ng/mL.
One may read the solubility as the dissolved amount per volume that the medium holds. Read a high solubility as much dissolved substance. Consider `Cc1n[nH]c2nc(-c3ccc(NS(=O)(=O)c4cc(C(F)(F)F)ccn4)cc3)nc(NCCN(C)C)c12` [Compound 30, N-(4-(4-((2-(dimethylamino)ethyl)amino)-3-methyl-1H-pyrazolo[3,4-d]pyrimidin-6-yl)phenyl)-4-(trifluoromethyl)pyridine-2-sulfonamide], for which, in data set [3] (pH 5, fessif), the solubility at 2 h is 276 µM (≈ 144 µg/mL). The molecule further yielded a solubility at 2 h in data set [3] (pH 7.4, aqueous buffer) of 295 µM (≈ 154 µg/mL). In data set [1], this molecule had a half-life of 4.4 h, a Cmax of 548 ng/mL and a bioavailability of 18.8%.
The molecule `CC(=O)OCCN(C)CCNc1nc(-c2ccc(NS(=O)(=O)c3cc(Cl)ccc3F)cc2)nc2[nH]nc(C)c12` [Compound 87, 2-[[2-([6-[4-(5-chloro-2-fluorobenzenesulfonamido)phenyl]-3-methyl-1H-pyrazolo[3,4-d]pyrimidin-4-yl]amino)ethyl](methyl)amino]ethyl acetate] showed a solubility at 2 h in data set [3] (pH 5, fessif) of 290 µM. Moreover, the solubility at 2 h in data set [3] (pH 7.4, aqueous buffer) amounted to 0.6 µM. Also, in data set [1], the half-life was 2 h, the highest level (Cmax) was 1020 ng/mL and the bioavailability was determined as 7.5%.
In data set [2], `Cc1n[nH]c2nc(-c3ccc(NS(=O)(=O)c4cc(F)ccc4F)c(F)c3)nc(O[C@@H]3CCNC[C@@H]3F)c12` [Compound 155] showed a half-life of 7.5 h, a bioavailability of 5.3% and a Cmax of 283 ng/mL.
With `CCCC(=O)OCCN(C)CCNc1nc(-c2ccc(NS(=O)(=O)c3cc(Cl)ccc3F)cc2)nc2[nH]nc(C)c12` [Compound 91, 2-{[2-({6-[4-(5-chloro-2-fluorobenzenesulfonamido)phenyl]-3-methyl-1H-pyrazolo[3,4-d]pyrimidin-4-yl}amino)ethyl](methyl)amino}ethyl butanoate trifluoroacetic acid], in data set [1], the half-life is 4.5 h, the Cmax was found to be 319 ng/mL and the bioavailability came out at 2.2%.
In data set [1], `Cc1n[nH]c2nc(-c3ccc(NS(=O)(=O)c4cc(Cl)ccc4F)cc3)nc(NCCN(C)CCOC(=O)CC(C)C)c12` [Compound 83, 2-{[2-({6-[4-(5-chloro-2-fluorobenzenesulfonamido)phenyl]-3-methyl-1H-pyrazolo[3,4-d]pyrimidin-4-yl}amino)ethyl](methyl)amino}ethyl 3-methylbutanoate] had a half-life of 2.4 h, a maximum concentration (Cmax) of 788 ng/mL and a bioavailability of 4.9%.
In data set [1], `Cc1n[nH]c2nc(-c3ccc(NS(=O)(=O)c4cc(Cl)ccc4F)cc3)nc(O[C@@H]3CCN(CCO)C[C@@H]3F)c12` [Compound 50, 5-chloro-2-fluoro-N-[4-(4-{[(3S,4R)-3-fluoro-1-(2-hydroxyethyl)piperidin-4-yl]oxy}-3-methyl-1H-pyrazolo[3,4-d]pyrimidin-6-yl)phenyl]benzenesulfonamide] had a half-life of 3.2 h and a Cmax of 54.9 ng/mL.
In turn, `Cc1n[nH]c2nc(-c3ccc(NS(=O)(=O)c4cc(OC(C)C)ccn4)cc3)nc(NCCN(C)C)c12` [Compound 73, N-[4-(4-{[2-(dimethylamino)ethyl]amino}-3-methyl-1H-pyrazolo[3,4-d]pyrimidin-6-yl)phenyl]-4-isopropoxypyridine-2-sulfonamide] yielded a solubility at 2 h in data set [3] (pH 5, fessif) of 311 µM (≈ 159 µg/mL). In data set [3] (pH 7.4, aqueous buffer), this molecule showed a solubility at 2 h of 265 µM (≈ 135 µg/mL). In addition, in data set [1], the half-life is 1.5 h and the Cmax stood at 143 ng/mL.
In the case of `COc1ccc(F)c(S(=O)(=O)Nc2ccc(-c3nc(NCCN(C)CCO)c4c(C)n[nH]c4n3)cc2)c1` [Compound 77, 2-fluoro-N-{4-[4-({2-[(2-hydroxyethyl)(methyl)amino]ethyl}amino)-3-methyl-1H-pyrazolo[3,4-d]pyrimidin-6-yl]phenyl}-5-methoxybenzenesulfonamide], in data set [1], the half-life was 2.2 h, the highest level (Cmax) was 16.8 ng/mL and the bioavailability amounted to 0.75%.
The molecule `Cc1n[nH]c2nc(-c3ccc(NS(=O)(=O)c4cc(Cl)ccc4F)c(F)c3)nc(NCCN(C)C)c12` [Compound 38, 5-chloro-N-(4-(4-((2-(dimethylamino)ethyl)amino)-3-methyl-1H-pyrazolo[3,4-d]pyrimidin-6-yl)-2-fluorophenyl)-2-fluorobenzenesulfonamide] gave a solubility at 2 h in data set [3] (pH 5, fessif) of 298 µM (≈ 156 µg/mL). The molecule also showed a solubility at 2 h in data set [3] (pH 7.4, aqueous buffer) of 15.9 µM (≈ 8.3 µg/mL). In data set [1], this molecule had a half-life of 2.2 h, a Cmax of 2340 ng/mL and a bioavailability of 41%.
For the molecule `Cc1n[nH]c2nc(-c3ccc(NS(=O)(=O)c4cc(Cl)ccc4F)c(Cl)c3)nc(OC3CCN(C)CC3)c12` [Compound 101, 5-chloro-N-(2-chloro-4-{3-methyl-4-[(1-methylpiperidin-4-yl)oxy]-1H-pyrazolo[3,4-d]pyrimidin-6-yl}phenyl)-2-fluorobenzenesulfonamide], in data set [2], the half-life was 3.8 h, the bioavailability was found to be 75% and the concentration peaked (Cmax) at 8120 ng/mL.
Consider `Cc1n[nH]c2nc(-c3ccc(NS(=O)(=O)c4cc(Cl)ccc4F)cc3)nc(NCCN(C)C)c12` [Compound 9, 5-chloro-N-(4-(4-((2-(dimethylamino)ethyl)amino)-3-methyl-1H-pyrazolo[3,4-d]pyrimidin-6-yl)phenyl)-2-fluorobenzenesulfonamide], for which the solubility at 2 h in data set [3] (pH 5, fessif) was 289 µM (≈ 146 µg/mL); in data set [3] (pH 7.4, aqueous buffer) it was 8.5 µM (≈ 4.28 µg/mL).
In data set [1], `Cc1n[nH]c2nc(-c3ccc(NS(=O)(=O)c4cc(Cl)ccc4F)cc3)nc(NCCN(C)CCOC(=O)C(C)(C)C)c12` [Compound 82, 2-{[2-({6-[4-(5-chloro-2-fluorobenzenesulfonamido)phenyl]-3-methyl-1H-pyrazolo[3,4-d]pyrimidin-4-yl}amino)ethyl](methyl)amino}ethyl 2,2-dimethylpropanoate] had a half-life of 1.7 h, a Cmax of 607 ng/mL and a bioavailability of 4.5%.
In data set [2], `Cc1n[nH]c2nc(-c3ccc(NS(=O)(=O)c4cc(OC(C)C)ccn4)c(Cl)c3)nc(NCCN(C)C)c12` [Compound 100, N-[2-chloro-4-(4-{[2-(dimethylamino)ethyl]amino}-3-methyl-1H-pyrazolo[3,4-d]pyrimidin-6-yl)phenyl]-4-isopropoxypyridine-2-sulfonamide] had a half-life of 3.8 h, a bioavailability of 39.5% and a Cmax of 2480 ng/mL.
Regarding `C=CS(=O)(=O)Nc1ccc(-c2nc(OC3CCN(C(C)C)CC3)c3c(C)n[nH]c3n2)cc1` [Compound 1, N-(4-(4-((1-isopropylpiperidin-4-yl)oxy)-3-methyl-1H-pyrazolo[3,4-d]pyrimidin-6-yl)phenyl)ethenesulfonamide], the solubility at 2 h in data set [3] (pH 5, fessif) came out at 279 µM (≈ 127 µg/mL); in data set [3] (pH 7.4, aqueous buffer), 290 µM (≈ 132 µg/mL).
Take `Cc1n[nH]c2nc(-c3ccc(NS(=O)(=O)c4cc(Cl)ccc4F)cc3)nc(NCCN(C)C=O)c12` [Compound 18, N-[2-([6-[4-(5-chloro-2-fluorobenzenesulfonamide)phenyl]-3-methyl-1H-pyrazolo[3,4-d]pyrimidin-4-yl]amino)ethyl]-N-methylformamide]: the solubility at 2 h is 268 µM (≈ 139 µg/mL) in data set [3] (pH 5, fessif) and 52 µM (≈ 26.9 µg/mL) in data set [3] (pH 7.4, aqueous buffer). In data set [1], the Cmax amounted to 2.3 ng/mL. The molecule further displayed a bioavailability in data set [1] of 0.5%.
For the molecule `Cc1n[nH]c2nc(-c3ccc(NS(=O)(=O)c4cc(Cl)ccc4F)cc3)nc(NCCN(C)CCOC(=O)C(C)C)c12` [Compound 89, 2-{[2-({6-[4-(5-chloro-2-fluorobenzenesulfonamido)phenyl]-3-methyl-1H-pyrazolo[3,4-d]pyrimidin-4-yl}amino)ethyl](methyl)amino}ethyl 2-methylpropanoate trifluoroacetic acid], in data set [1], the half-life is 1.2 h, the highest level (Cmax) was 1740 ng/mL and the bioavailability was 11%.
With `Cc1n[nH]c2nc(-c3ccc(NS(=O)(=O)c4cc(Cl)ccc4F)cc3)nc(N(C)CCN(C)C)c12` [Compound 154, 5-chloro-N-(4-(4-((2-(dimethylamino)ethyl)(methyl)amino)-3-methyl-1H-pyrazolo[3,4-d]pyrimidin-6-yl)phenyl)-2-fluorobenzenesulfonamide], the solubility at 2 h in data set [3] (pH 5, fessif) was determined as 136 µM (≈ 70.5 µg/mL); in data set [3] (pH 7.4, aqueous buffer), 1.61 µM (≈ 0.834 µg/mL).

Source of the values: patent publication US20240309005A1 (priority 2021, published 2024).
